Source: ChEMBL document CHEMBL2074510, “Defective ATP-dependent bile canalicular transport of organic anions in mutant (TR-) rats with conjugated hyperbilirubinemia” (Proc Natl Acad Sci U S A, 1990)

Target: ATP-binding cassette sub-family C member 2 (Rattus norvegicus, UniProt Q63120)
Assay: TP_TRANSPORTER: uptake in bile canalicular membrane vesicles from Wistar/TR- rat
Assay type: functional, cell membranes, Bile canalicular membrane vesicle

Sequence of ATP-binding cassette sub-family C member 2 (Q63120 whole entry): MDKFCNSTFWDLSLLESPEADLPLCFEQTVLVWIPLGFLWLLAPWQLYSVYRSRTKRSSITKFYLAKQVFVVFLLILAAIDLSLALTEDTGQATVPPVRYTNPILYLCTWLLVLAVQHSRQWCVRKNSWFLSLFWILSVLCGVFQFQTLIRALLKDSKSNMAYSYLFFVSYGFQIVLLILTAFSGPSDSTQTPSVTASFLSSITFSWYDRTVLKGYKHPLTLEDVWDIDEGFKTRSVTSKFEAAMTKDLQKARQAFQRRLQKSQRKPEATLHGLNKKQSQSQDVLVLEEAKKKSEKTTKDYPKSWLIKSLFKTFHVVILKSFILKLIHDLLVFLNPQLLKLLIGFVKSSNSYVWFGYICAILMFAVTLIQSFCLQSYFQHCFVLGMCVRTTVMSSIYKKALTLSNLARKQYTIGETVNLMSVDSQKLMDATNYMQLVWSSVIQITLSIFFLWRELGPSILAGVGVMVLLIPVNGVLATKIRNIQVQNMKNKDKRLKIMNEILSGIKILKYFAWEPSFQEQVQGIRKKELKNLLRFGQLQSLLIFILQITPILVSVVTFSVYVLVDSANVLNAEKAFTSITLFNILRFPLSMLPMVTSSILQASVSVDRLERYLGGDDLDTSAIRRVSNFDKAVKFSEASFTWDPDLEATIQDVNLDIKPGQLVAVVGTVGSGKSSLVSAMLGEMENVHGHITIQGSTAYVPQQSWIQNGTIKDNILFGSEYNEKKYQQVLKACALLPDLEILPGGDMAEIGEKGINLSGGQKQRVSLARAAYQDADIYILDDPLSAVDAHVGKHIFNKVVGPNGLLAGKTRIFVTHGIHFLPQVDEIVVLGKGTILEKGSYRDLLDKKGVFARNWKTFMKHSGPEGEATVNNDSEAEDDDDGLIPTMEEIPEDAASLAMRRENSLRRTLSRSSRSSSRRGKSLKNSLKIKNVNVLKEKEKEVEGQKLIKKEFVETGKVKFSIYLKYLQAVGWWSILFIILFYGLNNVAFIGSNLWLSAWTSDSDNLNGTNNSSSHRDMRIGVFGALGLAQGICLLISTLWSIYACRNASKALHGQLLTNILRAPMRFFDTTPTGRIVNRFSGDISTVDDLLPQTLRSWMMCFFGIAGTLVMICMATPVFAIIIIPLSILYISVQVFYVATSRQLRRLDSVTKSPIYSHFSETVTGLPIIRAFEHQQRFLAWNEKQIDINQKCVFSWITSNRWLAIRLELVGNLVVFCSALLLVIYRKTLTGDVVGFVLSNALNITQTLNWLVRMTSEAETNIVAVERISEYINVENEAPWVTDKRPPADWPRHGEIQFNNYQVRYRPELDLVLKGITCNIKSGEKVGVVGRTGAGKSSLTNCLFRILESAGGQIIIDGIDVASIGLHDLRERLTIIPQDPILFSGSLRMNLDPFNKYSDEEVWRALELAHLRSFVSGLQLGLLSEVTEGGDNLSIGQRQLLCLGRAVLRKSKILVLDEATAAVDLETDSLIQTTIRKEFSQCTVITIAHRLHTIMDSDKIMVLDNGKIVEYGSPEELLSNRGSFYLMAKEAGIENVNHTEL

Activity: substrate [+]
SMILES: N[C@@H](CCC(=O)N[C@@H](CSc1c(Br)c(Br)c2c(c1Br)C(=O)OC2(c1ccc(O)c(S(=O)(=O)O)c1)c1ccc(O)c(S(=O)(=O)O)c1)C(=O)NCC(=O)O)C(=O)O
